Experimental data from ChEMBL document CHEMBL1129857, “Synthesis, molecular modeling, and biology of the 1-benzyl derivative of APDC-an apparent mGluR6 selective ligand” (Bioorg Med Chem Lett, 1997).

How the values were obtained:
Format in all cases: functional
[1] = target: T1, Metabotropic glutamate receptor 5 (Rattus norvegicus, UniProt P31424); assay: Tested for the agonistic activity against Metabotropic glutamate receptor 5; Not active
[2] = target: Metabotropic glutamate receptor 6 (Rattus norvegicus, UniProt P35349); assay: Tested for the agonistic activity against Metabotropic glutamate receptor 6
Metabotropic glutamate receptor 6, sequence (P35349 whole entry): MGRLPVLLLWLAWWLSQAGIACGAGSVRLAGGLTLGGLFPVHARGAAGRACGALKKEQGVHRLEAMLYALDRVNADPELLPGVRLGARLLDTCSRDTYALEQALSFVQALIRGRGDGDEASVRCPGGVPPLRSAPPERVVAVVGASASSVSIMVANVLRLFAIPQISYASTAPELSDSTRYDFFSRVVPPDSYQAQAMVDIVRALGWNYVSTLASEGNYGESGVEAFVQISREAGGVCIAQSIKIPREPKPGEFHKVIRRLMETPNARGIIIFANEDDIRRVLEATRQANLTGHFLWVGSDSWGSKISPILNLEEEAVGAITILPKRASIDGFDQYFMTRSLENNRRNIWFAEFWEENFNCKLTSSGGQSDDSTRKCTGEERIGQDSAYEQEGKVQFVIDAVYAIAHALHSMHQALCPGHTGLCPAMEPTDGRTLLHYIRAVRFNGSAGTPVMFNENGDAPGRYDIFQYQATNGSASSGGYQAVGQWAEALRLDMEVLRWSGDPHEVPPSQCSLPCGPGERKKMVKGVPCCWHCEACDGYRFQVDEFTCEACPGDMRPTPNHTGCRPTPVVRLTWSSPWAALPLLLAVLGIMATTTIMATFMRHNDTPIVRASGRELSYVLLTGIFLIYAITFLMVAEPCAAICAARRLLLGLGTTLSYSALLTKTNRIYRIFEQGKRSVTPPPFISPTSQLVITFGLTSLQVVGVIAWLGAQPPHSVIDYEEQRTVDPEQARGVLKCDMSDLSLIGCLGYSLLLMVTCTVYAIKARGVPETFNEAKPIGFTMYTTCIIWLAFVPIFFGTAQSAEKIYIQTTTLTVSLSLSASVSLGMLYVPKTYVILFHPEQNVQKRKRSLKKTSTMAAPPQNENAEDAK

[3] = target: T2, Metabotropic glutamate receptor 2 (Rattus norvegicus, UniProt P31421); assay: Tested for the agonistic activity against Metabotropic glutamate receptor 2; Not active
T2 sequence (P31421 whole entry): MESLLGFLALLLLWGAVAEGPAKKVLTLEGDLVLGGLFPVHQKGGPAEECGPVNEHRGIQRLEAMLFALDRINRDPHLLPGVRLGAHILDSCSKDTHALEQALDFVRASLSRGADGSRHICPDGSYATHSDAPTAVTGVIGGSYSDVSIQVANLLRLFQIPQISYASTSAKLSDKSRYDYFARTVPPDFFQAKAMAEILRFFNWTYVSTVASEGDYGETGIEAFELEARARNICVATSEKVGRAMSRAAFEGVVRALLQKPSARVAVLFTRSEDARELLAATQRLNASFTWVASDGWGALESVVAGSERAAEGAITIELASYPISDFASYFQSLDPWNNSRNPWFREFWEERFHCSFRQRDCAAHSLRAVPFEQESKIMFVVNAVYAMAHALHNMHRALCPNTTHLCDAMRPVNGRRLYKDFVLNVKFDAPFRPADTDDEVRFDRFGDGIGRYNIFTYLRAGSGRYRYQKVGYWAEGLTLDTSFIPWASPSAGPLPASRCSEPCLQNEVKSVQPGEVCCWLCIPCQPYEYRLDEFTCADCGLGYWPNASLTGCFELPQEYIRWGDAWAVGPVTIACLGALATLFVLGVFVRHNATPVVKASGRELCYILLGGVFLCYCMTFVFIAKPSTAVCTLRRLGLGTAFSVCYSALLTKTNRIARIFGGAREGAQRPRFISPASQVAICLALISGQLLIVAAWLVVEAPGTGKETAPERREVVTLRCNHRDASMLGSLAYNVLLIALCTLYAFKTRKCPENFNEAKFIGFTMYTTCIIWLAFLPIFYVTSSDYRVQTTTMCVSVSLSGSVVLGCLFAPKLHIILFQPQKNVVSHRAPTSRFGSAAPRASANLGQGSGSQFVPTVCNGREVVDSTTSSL

[4] = target: T3, Metabotropic glutamate receptor 1 (Rattus norvegicus, UniProt P23385); assay: Tested for the agonistic activity against Metabotropic glutamate receptor 1; Not active
T3 sequence (P23385 whole entry): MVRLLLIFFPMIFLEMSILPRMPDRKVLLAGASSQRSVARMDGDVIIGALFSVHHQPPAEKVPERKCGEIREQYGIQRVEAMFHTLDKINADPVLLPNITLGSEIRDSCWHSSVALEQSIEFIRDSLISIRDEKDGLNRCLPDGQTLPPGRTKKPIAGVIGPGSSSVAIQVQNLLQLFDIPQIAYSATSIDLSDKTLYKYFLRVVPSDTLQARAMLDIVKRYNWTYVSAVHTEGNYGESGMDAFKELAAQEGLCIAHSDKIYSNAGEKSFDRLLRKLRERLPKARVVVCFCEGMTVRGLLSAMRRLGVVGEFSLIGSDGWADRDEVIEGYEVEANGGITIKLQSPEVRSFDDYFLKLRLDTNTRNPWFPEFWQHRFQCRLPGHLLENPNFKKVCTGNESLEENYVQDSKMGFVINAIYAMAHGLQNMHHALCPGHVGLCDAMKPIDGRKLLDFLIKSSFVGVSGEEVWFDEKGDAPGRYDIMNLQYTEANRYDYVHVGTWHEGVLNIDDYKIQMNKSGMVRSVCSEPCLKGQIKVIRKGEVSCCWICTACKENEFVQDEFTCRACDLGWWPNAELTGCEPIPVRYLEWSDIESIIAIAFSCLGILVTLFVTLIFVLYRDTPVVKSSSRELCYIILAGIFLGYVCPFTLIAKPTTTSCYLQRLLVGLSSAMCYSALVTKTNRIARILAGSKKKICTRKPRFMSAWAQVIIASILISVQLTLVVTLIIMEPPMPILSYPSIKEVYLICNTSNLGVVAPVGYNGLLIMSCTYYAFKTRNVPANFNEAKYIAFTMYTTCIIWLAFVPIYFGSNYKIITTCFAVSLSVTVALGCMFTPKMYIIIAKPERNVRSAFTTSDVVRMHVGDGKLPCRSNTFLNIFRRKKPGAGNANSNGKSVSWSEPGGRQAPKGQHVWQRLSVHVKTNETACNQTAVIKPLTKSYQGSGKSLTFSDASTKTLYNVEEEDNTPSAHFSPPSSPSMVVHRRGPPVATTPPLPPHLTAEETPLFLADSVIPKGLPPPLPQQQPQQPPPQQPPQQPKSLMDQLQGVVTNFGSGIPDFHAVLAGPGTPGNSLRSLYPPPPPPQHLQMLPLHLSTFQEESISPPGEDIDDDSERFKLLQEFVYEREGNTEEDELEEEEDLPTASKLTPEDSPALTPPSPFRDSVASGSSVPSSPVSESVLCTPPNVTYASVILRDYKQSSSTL

[5] = target: T1, Metabotropic glutamate receptor 5; assay: Tested for the agonistic activity against Metabotropic glutamate receptor 5
[6] = target: T2, Metabotropic glutamate receptor 2; assay: Tested for the agonistic activity against Metabotropic glutamate receptor 2
[7] = target: T3, Metabotropic glutamate receptor 1; assay: Tested for the agonistic activity against Metabotropic glutamate receptor 1

T1 sequence (P31424 whole entry): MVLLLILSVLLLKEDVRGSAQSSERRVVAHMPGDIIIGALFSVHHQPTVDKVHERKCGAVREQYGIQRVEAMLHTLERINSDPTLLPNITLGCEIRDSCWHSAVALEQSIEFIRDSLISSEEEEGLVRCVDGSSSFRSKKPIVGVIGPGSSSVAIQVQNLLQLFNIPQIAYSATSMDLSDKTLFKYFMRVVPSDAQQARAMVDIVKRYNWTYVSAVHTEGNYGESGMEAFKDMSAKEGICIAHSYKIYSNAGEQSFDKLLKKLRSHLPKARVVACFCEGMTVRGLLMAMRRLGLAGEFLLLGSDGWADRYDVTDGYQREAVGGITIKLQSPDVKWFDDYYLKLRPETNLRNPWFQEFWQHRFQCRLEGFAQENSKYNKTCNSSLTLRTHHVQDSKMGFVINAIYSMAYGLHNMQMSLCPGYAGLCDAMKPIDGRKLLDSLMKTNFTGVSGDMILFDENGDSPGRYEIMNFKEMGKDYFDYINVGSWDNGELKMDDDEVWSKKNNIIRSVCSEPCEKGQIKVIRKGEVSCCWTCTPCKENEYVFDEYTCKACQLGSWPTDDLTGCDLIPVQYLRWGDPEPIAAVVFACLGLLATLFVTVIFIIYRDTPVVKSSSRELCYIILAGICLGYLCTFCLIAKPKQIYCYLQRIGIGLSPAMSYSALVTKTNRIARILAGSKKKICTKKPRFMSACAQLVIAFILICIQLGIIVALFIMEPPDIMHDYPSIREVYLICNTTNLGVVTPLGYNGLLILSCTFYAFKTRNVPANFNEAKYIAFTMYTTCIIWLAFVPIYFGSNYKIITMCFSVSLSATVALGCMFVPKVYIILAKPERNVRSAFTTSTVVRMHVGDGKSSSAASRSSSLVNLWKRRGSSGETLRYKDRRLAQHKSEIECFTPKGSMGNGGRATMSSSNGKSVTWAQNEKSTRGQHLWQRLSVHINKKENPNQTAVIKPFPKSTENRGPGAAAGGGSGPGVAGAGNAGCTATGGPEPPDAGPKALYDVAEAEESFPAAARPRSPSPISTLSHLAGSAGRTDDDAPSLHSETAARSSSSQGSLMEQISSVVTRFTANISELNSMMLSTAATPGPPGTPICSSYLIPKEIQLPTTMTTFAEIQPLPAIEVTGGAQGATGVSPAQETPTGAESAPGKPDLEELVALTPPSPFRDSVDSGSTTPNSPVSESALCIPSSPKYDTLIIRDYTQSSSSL

EC50 [2] [µM] | EC50 [7] [µM] | Compound | EC50 [5] [µM] | other results
1000 | – | O=C(N[C@@]1(C(=O)O)CN[C@@H](C(=O)O)C1)c1ccccc1 | – | EC50 [1]: Not Active; EC50 [3]: Not Active; EC50 [4]: Not Active
20 | > 1000 | N[C@]1(C(=O)O)C[C@H](C(=O)O)N(Cc2ccccc2)C1 | – | IC50 [5]: 600 µM; IC50 [6]: 200 µM
110 | 100 | N[C@@]1(C(=O)O)CN[C@@H](C(=O)O)C1 | 200 | EC50 [6]: 0.3 µM

Compound | EC50 [2] [µM] | EC50 [7] [µM] | EC50 [5] [µM] | other results
NC(CCP(=O)(O)O)C(=O)O (stereo not given) | 1 | – | – | –
N[C@@]1(C(=O)O)CC[C@@H](C(=O)O)C1 | 60 | – | 15 | –
